Consider 30 molecules from ChEMBL document CHEMBL4834422, “New Tyramine- and Aporphine-Type Alkamides with NO Release Inhibitory Activities from Piper puberulum” (J Nat Prod, 2021).

Data set [1] relates to BV-2. In words: Antineuroinflammatory activity against mouse BV2 cells assessed as inhibition of LPS-induced NO production incubated for 20 hrs by Griess assay. The class given is functional, cell-based. Conditions: BV-2, 20 h.
In data set [2] the test system is BV-2. Briefly: Cytotoxicity against mouse BV2 cells assessed as reduction in cell viability at 1 to 25 uM after 24 hrs by MTT assay. The class given is cell-based. Conditions: bv-2, 24 h, dose 1-25 µM.

As for `COc1c(O)c(OC)c2c3c1CCN(C(C)=O)[C@@H]3[C@@H](O)c1ccccc1-2`, in data set [1], the IC50 is greater than 50 µM.
The same measure, in the same setting: to `COc1cc2c3c(c1OC)-c1ccccc1[C@H](O)[C@H]3N(C(C)=O)CC2` belongs greater than 50 µM.
Same read-out and setting: next, `COc1ccc(OC)c(C(=O)NCCc2ccc(O)c(OC)c2)c1`: greater than 50 µM.
For `COc1cc(/C=C/C(=O)NCCc2ccc(O)c(OC)c2)ccc1O`, the 50% inhibitory concentration (IC50) in data set [1] was greater than 50 µM.
For the molecule `COc1c2c3c(c4c1OCO4)-c1ccccc1[C@H](O)[C@H]3N(C(C)=O)CC2`, in data set [1], the half-maximal inhibitory concentration (IC50) was 16 µM. Further, in data set [2], the Activity entry is on record as “Non-Toxic”.
On the same counts, the results for `O=C(NCCc1ccc(O)cc1)c1ccc(O)c(O)c1` are 21 µM and “Non-Toxic”.
Regarding `COc1cc2c3c(cc4ccccc4c3c1OC)NC2=O` [CEPHARANONE B], the IC50 in data set [1] is greater than 50 µM.
As for `CC(=O)N1CCc2cc3c(c4c2[C@H]1[C@@H](O)c1ccccc1-4)OCO3`, in data set [1], the IC50 turned out to be 9 µM. For the same molecule, in data set [2], the Activity result is recorded as “Non-Toxic”.
For the molecule `CCCCC/C=C/C=C/C(=O)NCC(C)C` [PELLITORIN], the concentration for half-maximal inhibition (IC50) in data set [1] amounted to 45 µM. In addition, the Activity result in data set [2] was “Non-Toxic”.
On the same counts, the results for `COc1ccc(CCNC(=O)c2cc(O)ccc2O)cc1` are 7 µM and “Non-Toxic”.
As for `NC(=O)c1cn(CCc2ccc(O)cc2)c(=O)c2c(O)ccc(O)c12`, in data set [1], the concentration for half-maximal inhibition (IC50) was greater than 50 µM.
On the same count and under the same terms, next, `COc1cc([C@H]2c3c(cc(OC)c(O)c3OC)C=C(C(=O)NCCc3ccc(O)cc3)[C@@H]2C(=O)NCCc2ccc(O)cc2)cc(OC)c1O`: greater than 50 µM.
As to `O=C(/C=C/c1ccc(O)cc1)NCCc1ccc(O)cc1` [N-P-COUMAROYL TYRAMINE], in data set [1], the IC50 was 2.2 µM. Besides, the Activity result in data set [2] is on record as “Non-Toxic”.
On to `COc1ccc(CCNC(=O)c2cc(OC)ccc2O)cc1`, for which, in data set [1], the IC50 is greater than 50 µM.
Regarding `O=CN1CCc2cc3c(c4c2[C@H]1[C@@H](O)c1ccccc1-4)OCO3`, the concentration for half-maximal inhibition (IC50) in data set [1] was found to be 6.8 µM. Further, the Activity result in data set [2] was “Non-Toxic”.
As to `COc1cc2c3c(cc4ccccc4c3c1O)NC2=O` [PIPEROLACTAM A], the concentration for half-maximal inhibition (IC50) in data set [1] is greater than 50 µM.
With `COc1cc(/C=C\C(=O)NCCc2ccc(O)cc2)ccc1O`, the 50% inhibitory concentration (IC50) in data set [1] came to 22 µM. Also, the Activity entry in data set [2] is on record as “Non-Toxic”.
As for `COc1c(O)cc2c3c1-c1ccccc1[C@H](O)[C@H]3N(C(C)=O)CC2`, the half-maximal inhibitory concentration (IC50) in data set [1] was greater than 50 µM.
With `COc1ccc(CCNC(=O)c2c(O)ccc(O)c2OC)cc1`, the IC50 in data set [1] came to 1.4 µM. For the same molecule, in data set [2], the Activity result is on record as “Non-Toxic”.
Taken in the same sequence, the figures for `COc1c(OC)c(OC)c2c3c(cc4ccccc42)NC(=O)c13` were 12 µM and “Non-Toxic”.
On to `COc1cc(/C=C\C(=O)NCCc2ccc(O)cc2)cc(OC)c1O`, for which the half-maximal inhibitory concentration (IC50) in data set [1] is greater than 50 µM.
Turning to `COc1cc(/C=C/C(=O)NCCc2ccc(O)cc2)ccc1O` [N-TRANS-FERULOYL TYRAMINE], in data set [1], the half-inhibitory concentration (IC50) turned out to be 18 µM. For the same molecule, the Activity entry in data set [2] was “Non-Toxic”.
Taken in the same sequence, the figures for `COc1cc2c3c(cc4ccccc4c3c1OC)NC(=O)C2=O` [NORCEPHARADIONE] were 37 µM and “Non-Toxic”.
Taken in the same sequence, the figures for `O=C1c2ccccc2-c2c3c(cc4ccnc1c24)OCO3` [LIRIODENINE] were 5 µM and “Non-Toxic”.
In the case of `COc1cc(/C=C/C(=O)NCCc2ccc(O)cc2)cc(OC)c1O` [TRANS-N-SINAPOYLTYRAMINE], the 50% inhibitory concentration (IC50) in data set [1] is greater than 50 µM.
On to `COc1ccc(O)c(C(=O)NCCc2ccc(O)c(OC)c2)c1`, for which the half-inhibitory concentration (IC50) in data set [1] was 26 µM. The Activity entry in data set [2] is given as “Non-Toxic”.
`COc1ccc(O)c(C(=O)NCCc2ccc(O)cc2)c1`: the IC50 in data set [1] was greater than 50 µM.
On the same count and under the same terms, to `COc1cccc(/C=C/C(=O)N2CCCC2)c1` belongs greater than 50 µM; to `COc1c2c3c(c(OC)c1OC)-c1ccccc1[C@H](O)[C@H]3N(C(C)=O)CC2`, greater than 50 µM; to `CN(C)c1ccc(O)c2c1C[C@H]1C[C@H]3[C@H](N(C)C)C(O)=C(C(N)=O)C(=O)[C@@]3(O)C(O)=C1C2=O` [MINOCYCLINE], 15 µM.
